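Following 48 hours of exposure in 96-well plates, responses at five concentrations were used to interpolate endpoints linearly. TGI marks complete inhibition of growth.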
Legend:
Assay in all cases: inhibition of tumour cell growth, NCI panel, 48 h
786-0 renal = test system: 786-0 renal
A498 renal = test system: A498 renal
A549 NSCLC = test system: A549 NSCLC
ACHN renal = test system: ACHN renal
BT-549 breast = test system: BT-549 breast
CAKI-1 renal = test system: CAKI-1 renal
CCRF-CEM leukemia = test system: CCRF-CEM leukemia
COLO 205 colon = test system: COLO 205 colon
DU-145 prostate = test system: DU-145 prostate
EKVX NSCLC = test system: EKVX NSCLC
HCC-2998 colon = test system: HCC-2998 colon
HCT-116 colon = test system: HCT-116 colon
HCT-15 colon = test system: HCT-15 colon
HOP-62 NSCLC = test system: HOP-62 NSCLC
HS 578T breast = test system: HS 578T breast
HT29 colon = test system: HT29 colon
IGROV1 ovarian = test system: IGROV1 ovarian
K-562 leukemia = test system: K-562 leukemia
KM12 colon = test system: KM12 colon
LOX IMVI melanoma = test system: LOX IMVI melanoma
M14 melanoma = test system: M14 melanoma
MALME-3M melanoma = test system: MALME-3M melanoma
MCF7 breast = test system: MCF7 breast
MDA-MB-231 breast = test system: MDA-MB-231 breast
MDA-MB-435 = test system: MDA-MB-435
MDA-N = test system: MDA-N
MOLT-4 leukemia = test system: MOLT-4 leukemia
NCI-H226 lung = test system: NCI-H226 lung
NCI-H23 lung = test system: NCI-H23 lung
NCI-H460 lung = test system: NCI-H460 lung
NCI-H522 lung = test system: NCI-H522 lung
NCI/ADR-RES ovarian = test system: NCI/ADR-RES ovarian
OVCAR-3 ovarian = test system: OVCAR-3 ovarian
OVCAR-4 ovarian = test system: OVCAR-4 ovarian
OVCAR-5 ovarian = test system: OVCAR-5 ovarian
OVCAR-8 ovarian = test system: OVCAR-8 ovarian
PC-3 prostate = test system: PC-3 prostate
RPMI-8226 leukemia = test system: RPMI-8226 leukemia
RXF 393 renal = test system: RXF 393 renal
SF-268 CNS = test system: SF-268 CNS
SF-295 CNS = test system: SF-295 CNS
SK-MEL-2 melanoma = test system: SK-MEL-2 melanoma
SK-MEL-28 melanoma = test system: SK-MEL-28 melanoma
SK-MEL-5 melanoma = test system: SK-MEL-5 melanoma
SK-OV-3 ovarian = test system: SK-OV-3 ovarian
SN12C renal = test system: SN12C renal
SNB-19 CNS = test system: SNB-19 CNS
SNB-75 CNS = test system: SNB-75 CNS
SR leukemia = test system: SR leukemia
SW-620 colon = test system: SW-620 colon
T-47D breast = test system: T-47D breast
TK-10 renal = test system: TK-10 renal
U251 CNS = test system: U251 CNS
UACC-257 melanoma = test system: UACC-257 melanoma
UACC-62 melanoma = test system: UACC-62 melanoma
UO-31 renal = test system: UO-31 renal

With `COc1cc(C)c(S(=O)(=O)N(CCCN)OCCCN)c(C)c1C` the TGI (786-0 renal) was > 100 µM, the TGI (A498 renal) was > 100 µM and the TGI (A549 NSCLC) was > 100 µM. For the same compound, the TGI (ACHN renal) was > 100 µM, the TGI (BT-549 breast) was 66.5 µM and the TGI (CAKI-1 renal) was > 100 µM. For the same compound, the TGI (CCRF-CEM leukemia) was > 100 µM, the TGI (COLO 205 colon) was 41.2 µM and the TGI (DU-145 prostate) was > 100 µM. For the same compound, the TGI (EKVX NSCLC) was > 100 µM, the TGI (HCC-2998 colon) was 57.1 µM and the TGI (HCT-116 colon) was > 100 µM. The TGI (HCT-15 colon) was > 100 µM, the TGI (HOP-62 NSCLC) was > 100 µM and the TGI (HS 578T breast) was 65.2 µM. The TGI (HT29 colon) was > 100 µM, the TGI (IGROV1 ovarian) was > 100 µM and the TGI (K-562 leukemia) was 31.7 µM. The TGI (KM12 colon) was > 100 µM, the TGI (LOX IMVI melanoma) was 84.6 µM and the TGI (M14 melanoma) was 65.2 µM. For the same compound, the TGI (MALME-3M melanoma) was 42.8 µM, the TGI (MCF7 breast) was 53.1 µM and the TGI (MDA-MB-231 breast) was 80.8 µM. The TGI (MDA-MB-435) was > 100 µM, the TGI (MDA-N) was > 100 µM and the TGI (MOLT-4 leukemia) was 31.4 µM. The TGI (NCI-H226 lung) was > 100 µM, the TGI (NCI-H23 lung) was > 100 µM and the TGI (NCI-H460 lung) was > 100 µM. For the same compound, the TGI (NCI-H522 lung) was 51.7 µM, the TGI (NCI/ADR-RES ovarian) was > 100 µM and the TGI (OVCAR-3 ovarian) was > 100 µM. For the same compound, the TGI (OVCAR-4 ovarian) was > 100 µM, the TGI (OVCAR-5 ovarian) was > 100 µM and the TGI (OVCAR-8 ovarian) was > 100 µM. For the same compound, the TGI (PC-3 prostate) was 77.3 µM, the TGI (RPMI-8226 leukemia) was 49 µM and the TGI (RXF 393 renal) was 90 µM. For the same compound, the TGI (SF-268 CNS) was > 100 µM, the TGI (SF-295 CNS) was > 100 µM and the TGI (SK-MEL-2 melanoma) was 51.5 µM. The TGI (SK-MEL-28 melanoma) was > 100 µM, the TGI (SK-MEL-5 melanoma) was 53 µM and the TGI (SK-OV-3 ovarian) was > 100 µM. For the same compound, the TGI (SN12C renal) was > 100 µM, the TGI (SNB-19 CNS) was > 100 µM and the TGI (SNB-75 CNS) was > 100 µM. For the same compound, the TGI (SR leukemia) was 38.6 µM, the TGI (SW-620 colon) was > 100 µM and the TGI (T-47D breast) was > 100 µM. For the same compound, the TGI (TK-10 renal) was > 100 µM, the TGI (U251 CNS) was > 100 µM and the TGI (UACC-257 melanoma) was 62.3 µM. The TGI (UACC-62 melanoma) was > 100 µM and the TGI (UO-31 renal) was > 100 µM.
